{"source": "paper PMC7968864", "about": "“Theory of Allosteric Regulation in Hsp70 Molecular Chaperones” (QRB Discovery, 2020)", "origin": "cited, not measured here", "key": {"[1]": {"tested_on": "WT DnaK", "settings": "fluorescence anisotropy, ref Wang et al., 2020"}, "[2]": {"tested_on": "I483D DnaK", "parameters": "method as in Wang et al., 2020", "settings": "fluorescein-labelled NR peptide 10 nM, fluorescence anisotropy, ref Wang et al., 2020"}}, "data": [{"substance": "NRLLLTG [fluorescein-labelled NR peptide]", "values": [{"measurement": "peptide binding in ATP versus ADP (in words)", "setting": "[1]", "result": "much reduced in the presence of ATP as compared to when with ADP"}, {"measurement": "peptide binding in ADP (in words)", "setting": "[2]", "result": "indistinguishable from that to WT when in ADP"}]}]}
